Activity calls are given as the source filed them. The calls are words filed in the database; no cut-off is given here.
Tests used:
Escherichia coli [1] = experiment: Antibacterial activity against Escherichia coli ATCC 25922 assessed as inhibition of bacterial growth measured after 24 hrs by MH broth based assay; type: functional
Proteus = experiment: Antibacterial activity against Proteus CMCC (B) 49027 assessed as inhibition of bacterial growth measured after 24 hrs by MH broth based assay; type: functional
Staphylococcus aureus [2] = experiment: Antibacterial activity against clinical isolate Staphylococcus aureus harbouring cfr gene assessed as inhibition of bacterial growth measured after 24 hrs by MH broth based assay; type: functional
Staphylococcus aureus [3] = experiment: Antibacterial activity against clinical isolate Staphylococcus aureus harbouring IsaA, cfr and erm A gene assessed as inhibition of bacterial growth measured after 24 hrs by MH broth based assay; type: functional
Streptococcus pneumoniae = experiment: Antibacterial activity against clinical isolate Streptococcus pneumoniae harbouring ermB gene assessed as inhibition of bacterial growth measured after 24 hrs by MH broth based assay; type: functional
Aerococcus viridans = experiment: Antibacterial activity against clinical isolate Aerococcus viridans harbouring optrA and ErmA gene assessed as inhibition of bacterial growth measured after 24 hrs by MH broth based assay; type: functional
Streptococcus suis = experiment: Antibacterial activity against clinical isolate Streptococcus suis harbouring IsaE and ErmA gene assessed as inhibition of bacterial growth measured after 24 hrs by MH broth based assay; type: functional
Streptococcus parasuis = experiment: Antibacterial activity against clinical isolate Streptococcus parasuis harbouring optrA gene assessed as inhibition of bacterial growth measured after 24 hrs by MH broth based assay; type: functional
[4] = test system: Streptococcus hyovaginalis; experiment: Antibacterial activity against clinical isolate Streptococcus hyovaginalis harbouring ErmB and tetO gene assessed as inhibition of bacterial growth measured after 24 hrs by MH broth based assay; type: functional
Enterococcus hirae = experiment: Antibacterial activity against clinical isolate Enterococcus hirae assessed as inhibition of bacterial growth measured after 24 hrs by MH broth based assay; type: functional
Enterococcus lactis = experiment: Antibacterial activity against clinical isolate Enterococcus lactis assessed as inhibition of bacterial growth measured after 24 hrs by MH broth based assay; type: functional
Escherichia coli [5] = experiment: Antibacterial activity against Escherichia coli MG1655 assessed as inhibition of bacterial growth measured after 24 hrs by MH broth based assay; type: functional
Staphylococcus aureus [6] = experiment: Antibacterial activity against methicillin-resistant Staphylococcus aureus ATCC 43300 assessed as reduction in log10 CFU at 6 times of MIC measured after 8 hrs by time-kill assay; type: functional
Staphylococcus aureus [7] = experiment: Antibacterial activity against clinical isolate multi-drug resistant Staphylococcus aureus sal assessed as reduction in log10 CFU at 6 times of MIC measured after 8 hrs by time-kill assay; type: functional
Staphylococcus aureus [8] = experiment: Antibacterial activity against compound-resistant/methicillin-resistant Staphylococcus aureus assessed as inhibition of bacterial growth; type: functional
Staphylococcus aureus [9] = experiment: Antibacterial activity against methicillin-resistant Staphylococcus aureus […] assessed as post antibacterial effect by measuring time required for increase in log10 CFU/ml of bacteria at 4 times of MIC incubated for 1 hr by MH broth based assay; type: functional
Staphylococcus aureus [10] = experiment: Antibacterial activity against 2 times of MIC treated methicillin-resistant Staphylococcus aureus […] assessed as post-antibiotic sub-MIC effect by measuring time required for increase in log10 CFU/ml of bacteria at 0.5 times of MIC incubated for 1 hr by MH broth based assay; type: functional
Cell membrane = experiment: Disruption of membrane integrity in Staphylococcus aureus ATCC 29213 at 1 to 6 times of MIC by DAPI/propidium iodide staining based fluorescence microscopic analysis; type: subcellular
HEK293 = experiment: Cytotoxicity against HEK293 cells assessed as reduction in cell viability at 7.5 to 1000 ug/ml incubated for 6 hrs by CCK-8 assay; type: toxicity, cell-based; conditions: human, hek293, 6 h, dose 7.5-1000 µg/ml
[11] = Hemolytic activity in rabbit RBC at 200 ug/ml incubated for 5 mins by absorbance based analysis; type: toxicity, cell-based, Oryctolagus cuniculus, Erythrocyte; conditions: rabbit red blood cells (erythrocytes), at 200 µg/mL, read-out: Activity
Staphylococcus aureus [12] = experiment: Antibacterial activity against methicillin-resistant Staphylococcus aureus infected in rabbit RBC assessed as reduction in haemolysis by measuring haemoglobin level at 0.25 to 1 times of MIC by absorbance based analysis; type: functional, organism-based; conditions: Erythrocyte
Staphylococcus aureus [13] = experiment: Antibacterial activity against multi-drug resistant Staphylococcus aureus sa1 infected in BABL/C mouse assessed as reduction in bacterial load in lungs at 20 mg/kg, ip measured after 2 days; type: functional; conditions: time 2 day

SMILES: C=C[C@]1(C)C[C@@H](OC(=O)CSc2cc[n+](CCCCCCC)cc2)[C@]2(C)[C@H](C)CC[C@]3(CCC(=O)[C@H]32)[C@@H](C)[C@@H]1O.[I-]
- MIC (Escherichia coli [1]): 32 µg/mL
- MIC (Proteus): 32 µg/mL
- MIC (Staphylococcus aureus [2]): 8 µg/mL
- MIC (Staphylococcus aureus [3]): 4 µg/mL
- MIC (Streptococcus pneumoniae): 0.5 µg/mL
- MIC (Aerococcus viridans): 2 µg/mL
- MIC (Streptococcus suis): 16 µg/mL
- MIC (Streptococcus parasuis): 16 µg/mL
- MIC [4]: 32 µg/mL
- MIC (Enterococcus hirae): 0.25 µg/mL
- MIC (Enterococcus lactis): 32 µg/mL
- MIC (Escherichia coli [5]): 32 µg/mL
- Activity (Staphylococcus aureus [6]): 2 log10CFU/ml
- Activity (Staphylococcus aureus [7]): 2 log10CFU/ml
- MIC (Staphylococcus aureus [8]): 0.5 µg/mL
- Time (Staphylococcus aureus [9]): 2.56 h
- Time (Staphylococcus aureus [10]): ~2.7 h
- Activity (Cell membrane): Active
- Activity (HEK293): Non-Toxic
- hemolysis at 5 min, 200 ug/ml [11]: < 14%
- Activity (Staphylococcus aureus [12]): Active
- Activity (Staphylococcus aureus [13]): 3.29 log10CFU/ml
